Test results taken from patent publication US12226409B2, “Treatment of hepatocellular carcinoma” (Eisai R&D Management Co., Ltd., priority 2017, dated 2025).

Test system: patients with unresectable HCC
Assay: Open-label phase 3 study, safety and side-effect profile (CTCAE v4.0)
[1] = Any grade, listed as lenvatinib

From the text: Randomization was stratified according to region (Asia-Pacific or Western regions), macroscopic portal vein invasion and/or extrahepatic spread (yes or no), Eastern Cooperative Oncology Group performance status (0 or 1), and body weight (<60 kg or ≥60 kg).
Safety assessments included recording of vital signs, hematologic and biochemical laboratory testing, urinalysis, and electrocardiography.

Structure (SMILES): COc1cc2nccc(Oc3ccc(NC(=O)NC4CC4)c(Cl)c3)c2cc1C(N)=O [Lenvatinib, 4-(3-chloro-4(cyclopropylaminocarbonyl)aminophenoxy)-7-methoxy-6-quinolinecarboxamide]
- TEAE: Alopecia (12 mg starting dose): 9 (2.8) n (%)
- TEAE: Ascites (12 mg starting dose): 47 (14.5) n (%)
- TEAE: Aspartate aminotransferase increased (12 mg starting dose): 44 (13.5) n (%)
- TEAE: Asthenia (12 mg starting dose): 40 (12.3) n (%)
- TEAE: Back pain (12 mg starting dose): 39 (12.0) n (%)
- TEAE: Blood bilirubin increased (12 mg starting dose): 48 (14.8) n (%)
- TEAE: Constipation (12 mg starting dose): 57 (17.5) n (%)
- TEAE: Decreased appetite (12 mg starting dose): 112 (34.5) n (%)
- TEAE: Diarrhea (12 mg starting dose): 131 (40.3) n (%)
- TEAE: Dysphonia (12 mg starting dose): 85 (26.2) n (%)
- TEAE: Edema peripheral (12 mg starting dose): 43 (13.2) n (%)
- TEAE: Fatigue (12 mg starting dose): 99 (30.5) n (%)
- TEAE: Hypertension (12 mg starting dose): 136 (41.8) n (%)
- TEAE: Hypothyroidism (12 mg starting dose): 53 (16.3) n (%)
- TEAE: Nausea (12 mg starting dose): 69 (21.2) n (%)
- TEAE: Palmar-plantar erythrodysesthesia syndrome (12 mg starting dose): 93 (28.6) n (%)
- TEAE: Platelet count decreased (12 mg starting dose): 61 (18.8) n (%)
- TEAE: Proteinuria (12 mg starting dose): 80 (24.6) n (%)
- TEAE: Pyrexia (12 mg starting dose): 45 (13.8) n (%)
- TEAE: Rash (12 mg starting dose): 28 (8.6) n (%)
- TEAE: Stomatitis (12 mg starting dose): 34 (10.5) n (%)
- TEAE: Vomiting (12 mg starting dose): 55 (16.9) n (%)
- TEAE: Weight decreased (12 mg starting dose): 104 (32.0) n (%)
- TEAE: Dysphonia (Any grade): (23.7) %
- TEAE: Proteinuria (Any grade): (24.6) %
- TEAE: decreased weight (Any grade): (30.9) %
- TEAE: Dysphonia [1]: 23.7%
- TEAE: Hypertension [1]: 42.2%
- TEAE: Hypothyroidism [1]: 16.4%
- TEAE: Proteinuria [1]: 24.6%
- Primary reason for discontinuation of treatment: Adverse event (Full Analysis Set): 63 (13.2) n (%)
- most common adverse reactions, in order of decreasing frequency (HCC subjects): hypertension, fatigue, diarrhea, decreased appetite, arthralgia/myalgia, and decreased weight
- adverse event rate adjusted by patient-years (TEAEs of grade 3 or higher): 3.2
- adverse event rate adjusted by patient-years (all TEAEs): 18.9
- Dose modification: AST increased (in vivo): 1.9%
- Dose modification: ascites (in vivo): 2.1%
- Dose modification: hepatic encephalopathy (in vivo): 4.2%
- Dose modification: neutrophil count decreased (in vivo): 2.3%
- Dose modification: pyrexia (in vivo): 2.5%
- Dose modification: vomiting (in vivo): 2.5%
- Dose modification: weight decreased (in vivo): 4.2%
- Dose reduction/interruption: Gastrointestinal disorders (in vivo): 18.3%
- Dose reduction/interruption: General disorders and administration site conditions (in vivo): 14.1%
- Dose reduction/interruption: Investigations (in vivo): 17.0%
- Dose reduction/interruption: Metabolism and nutrition disorders (in vivo): 10.9%
- Dose reduction/interruption: PPE syndrome (in vivo): 5.3%
- Dose reduction/interruption: decreased appetite (in vivo): 7.6%
- Dose reduction/interruption: diarrhea (in vivo): 7.6%
- Dose reduction/interruption: fatigue (in vivo): 5.7%
- Dose reduction/interruption: hypertension (in vivo): 6.1%
- Dose reduction/interruption: proteinuria (in vivo): 6.9%
- Treatment-emergent adverse events of grade 3 or higher, patients (in vivo): 75.0%
- Treatment-emergent adverse events, patients (in vivo): 98.7%
- WBC count deceased, adjusted by treatment duration (in vivo): 0.25 episodes per SY
- dysphonia, adjusted by treatment duration (in vivo): 0.4 episodes per SY
- hepatic encephalopathy, adjusted by treatment duration (in vivo): 0.17 episodes per SY
- hypothyroidism, adjusted by treatment duration (in vivo): 0.24 episodes per SY
- neutrophil count decreased, adjusted by treatment duration (in vivo): 0.21 episodes per SY
- proteinuria, adjusted by treatment duration (in vivo): 0.5 episodes per SY
- subjects without a TEAE (in vivo): 6 subjects
- AEs leading to dose reduction or interruption, subjects (unadjusted for treatment duration): 61.8%
- Dose reduction/interruption: Abdominal pain (whole arm): 6 (1.3) n (%)
- Dose reduction/interruption: Abdominal pain upper (whole arm): 5 (1.1) n (%)
- Dose reduction/interruption: Alanine aminotransferase increased (whole arm): 6 (1.3) n (%)
- Dose reduction/interruption: Anemia (whole arm): 3 (0.6) n (%)
- Dose reduction/interruption: Ascites (whole arm): 10 (2.1) n (%)
- Dose reduction/interruption: Aspartate aminotransferase increased (whole arm): 9 (1.9) n (%)
- Dose reduction/interruption: Asthenia (whole arm): 16 (3.4) n (%)
- Dose reduction/interruption: Blood and lymphatic system disorders (whole arm): 16 (3.4) n (%)
- Dose reduction/interruption: Blood bilirubin increased (whole arm): 20 (4.2) n (%)
- Dose reduction/interruption: Decreased appetite (whole arm): 36 (7.6) n (%)
- Dose reduction/interruption: Dehydration (whole arm): 6 (1.3) n (%)
- Dose reduction/interruption: Diarrhea (whole arm): 36 (7.6) n (%)
- Dose reduction/interruption: Dyspnea (whole arm): 8 (1.7) n (%)
- Dose reduction/interruption: Edema peripheral (whole arm): 6 (1.3) n (%)
- Dose reduction/interruption: Esophageal varices hemorrhage (whole arm): 5 (1.1) n (%)
- Dose reduction/interruption: Fatigue (whole arm): 27 (5.7) n (%)
- Dose reduction/interruption: Gamma-glutamyltransferase increased (whole arm): 7 (1.5) n (%)
- Dose reduction/interruption: Gastrointestinal disorders (whole arm): 87 (18.3) n (%)
- Dose reduction/interruption: General disorders and administration site conditions (whole arm): 67 (14.1) n (%)
- Dose reduction/interruption: Hepatic encephalopathy (whole arm): 20 (4.2) n (%)
- Dose reduction/interruption: Hepatic function abnormal (whole arm): 2 (0.4) n (%)
- Dose reduction/interruption: Hepatobiliary disorders (whole arm): 27 (5.7) n (%)
- Dose reduction/interruption: Hypertension (whole arm): 29 (6.1) n (%)
- Dose reduction/interruption: Hyponatremia (whole arm): 5 (1.1) n (%)
- Dose reduction/interruption: Investigations (whole arm): 81 (17.0) n (%)
- Dose reduction/interruption: Malaise (whole arm): 5 (1.1) n (%)
- Dose reduction/interruption: Metabolism and nutrition disorders (whole arm): 52 (10.9) n (%)
- Dose reduction/interruption: Musculoskeletal and connective tissue disorders (whole arm): 18 (3.8) n (%)
- Dose reduction/interruption: Myalgia (whole arm): 5 (1.1) n (%)
- Dose reduction/interruption: Nausea (whole arm): 16 (3.4) n (%)
- Dose reduction/interruption: Nervous system disorders (whole arm): 35 (7.4) n (%)
- Dose reduction/interruption: Neutropenia (whole arm): 6 (1.3) n (%)
- Dose reduction/interruption: Neutrophil count decreased (whole arm): 11 (2.3) n (%)
- Dose reduction/interruption: Palmar-plantar erythrodysesthesia syndrome (whole arm): 25 (5.3) n (%)
- Dose reduction/interruption: Platelet count decreased (whole arm): 22 (4.6) n (%)
- Dose reduction/interruption: Proteinuria (whole arm): 33 (6.9) n (%)
- Dose reduction/interruption: Pyrexia (whole arm): 12 (2.5) n (%)
- Dose reduction/interruption: Rash (whole arm): 2 (0.4) n (%)
- Dose reduction/interruption: Rash maculo-papular (whole arm): 0 (0.0) n (%)
- Dose reduction/interruption: Renal and urinary disorders (whole arm): 40 (8.4) n (%)
- Dose reduction/interruption: Respiratory, thoracic and mediastinal disorders (whole arm): 16 (3.4) n (%)
- Dose reduction/interruption: Skin and subcutaneous tissue disorders (whole arm): 28 (5.9) n (%)
- Dose reduction/interruption: Stomatitis (whole arm): 6 (1.3) n (%)
- Dose reduction/interruption: Thrombocytopenia (whole arm): 6 (1.3) n (%)
- Dose reduction/interruption: Vascular disorders (whole arm): 33 (6.9) n (%)
- Dose reduction/interruption: Vomiting (whole arm): 12 (2.5) n (%)
- Dose reduction/interruption: Weight decreased (whole arm): 20 (4.2) n (%)
- Dose reduction/interruption: White blood cell count decreased (whole arm): 6 (1.3) n (%)
- Subjects with Any TEAEs (whole arm): 470 (98.7) n (%)
- Subjects with any TEAEs leading to Dose Reduction or Interruption (whole arm): 294 (61.8) n (%)
- TEAE: Abdominal pain (whole arm): 81 (17.0) n (%)
- TEAE: Abdominal pain upper (whole arm): 58 (12.2) n (%)
- TEAE: Alanine aminotransferase increased (whole arm): 53 (11.1) n (%)
- TEAE: Alopecia (whole arm): 14 (2.9) n (%)
- TEAE: Ascites (whole arm): 68 (14.3) n (%)
- TEAE: Aspartate aminotransferase increased (whole arm): 65 (13.7) n (%)
- TEAE: Asthenia (whole arm): 54 (11.3) n (%)
- TEAE: Back pain (whole arm): 50 (10.5) n (%)
- TEAE: Blood bilirubin increased (whole arm): 71 (14.9) n (%)
- TEAE: Constipation (whole arm): 76 (16.0) n (%)
- TEAE: Decreased appetite (whole arm): 162 (34.0) n (%)
- TEAE: Diarrhea (whole arm): 184 (38.7) n (%)
- TEAE: Dysphonia (whole arm): 113 (23.7) n (%)
- TEAE: Edema peripheral (whole arm): 66 (13.9) n (%)
- TEAE: Fatigue (whole arm): 141 (29.6) n (%)
- TEAE: Hypertension (whole arm): 201 (42.2) n (%)
- TEAE: Hypothyroidism (whole arm): 78 (16.4) n (%)
- TEAE: Nausea (whole arm): 93 (19.5) n (%)
- TEAE: Palmar-plantar erythrodysesthesia syndrome (whole arm): 128 (26.9) n (%)
- TEAE: Platelet count decreased (whole arm): 87 (18.3) n (%)
- TEAE: Proteinuria (whole arm): 117 (24.6) n (%)
- TEAE: Pyrexia (whole arm): 69 (14.5) n (%)
- TEAE: Rash (whole arm): 46 (9.7) n (%)
- TEAE: Stomatitis (whole arm): 45 (9.5) n (%)
- TEAE: Vomiting (whole arm): 77 (16.2) n (%)
- TEAE: Weight decreased (whole arm): 147 (30.9) n (%)
